Measured values as given in US8680153B2, “Method for correcting a lipid imbalance in a subject” (The Royal Institution for the Advancement of …, priority 2005, dated 2014).

What was measured:
alveolar cells = experiment: Alveolar (inflammatory) cells in bronchoalveolar lavage fluid of infected mice; format: in vivo
Protocol: (§1) Mouse Lung Infection. Mice were anaesthetized with a combination of ketamine (7.5 mg/mL) and xylazine (0.5 mg/mL) administered intraperitoneally at a dose of 20 mL/kg of body weight. Once the mouse was successfully anaesthetized, the animal was installed under binoculars (Microscope M650, Wild Leitz, Willowdale, ON) in the vertical position and held on a restraining board by holding the animal by its upper incisor teeth (Guilbault, et al. (2005) supra). The tongue was then gently pulled to the side of the mouth and a 26-G gavage needle was inserted into the mouth and guided through the pharynx gently touching the vocal cords to see the lumen of the trachea; the needle was then introduced into the trachea to reach the lung for the bilateral injection of the 50 microliter inoculum. After inoculation, the animal regained righting reflex within an hour. A final dose of 1×10^6 P. aeruginosa was used for infection using wild-type and Cftr-KO mice. Mice were monitored 3 times daily; the maximum weight loss allowed was 15%. Mice were sacrificed by CO2 overdose.
Bronchoalveolar Lavage. Circulation was flushed by slow intracardiac infusion of divalent cation-free Hank's balanced salt solution (HBSS; INVITROGEN™, Mississauga, ON). The trachea was cannulated with a 22-gauge intravenous catheter placement unit (CRITIKON®, GE Medical Systems, Tampa, Fla.) connected to two 5 mL syringes via a 3-way stopcock with a rotating collar (Namic U.S.A., Glens Falls, N.Y.). The alveoli of infected mice were washed 3 times with 1.4 mL of divalent cation-free HBSS. The volume of bronchoalveolar lavage fluid recovered was approximately 1.2 mL. […] Cells were resuspended in 0.5 mL of Dulbecco's Modified Eagle Medium (DMEM; INVITROGEN™) supplemented with 10% fetal bovine serum (FBS; Hyclone, Logan, Utah), diluted in Turk's solution and counted using a hematocytometer. The proportions of macrophages, lymphocytes and PMN were calculated after counting approximately 300 alveolar cells on cytospin preparations stained with DIFF-QUICK® stain (American Scientific Products, McGaw Park, Ill.).

Cftr-KO mice = experiment: μCT of trabecular bone (femur), biweekly treatment for 4 weeks; format: in vivo
Protocol: (§2) Fenretinide Diet Supplementation. Examples 2 to 6: fenretinide (Sigma-Aldrich, Oakville, ON) powder was resuspended in 95% ethanol and subsequently incorporated in the Peptamen liquid diet. It was protected from light and kept at 4° C. before being given to the mice (5 mg/kg per day per mouse). Mock-treated diets were prepared similarly by adding ethanol to the Peptamen diet but omitting the fenretinide supplementation. The diet was given every morning for 28 consecutive days with specific monitoring of the quantity consumed by the mice in each cage. Examples 7 to 12: fenretinide powder was kindly provided by Dr. Robert Smith (NIH; Bethesda, Md., USA). Fenretinide was resuspended in 95% ethanol to make a 2 μg/μL concentration. Approximately 40 μL of this preparation was incorporated into the Peptamen liquid diet (5 mg/kg per day per mouse). The prepared food containing fenretinide was then stored in the dark at 4° C. for no more than 3 hours prior to being administered to the mice. To ensure that the entire drug dose was consumed, the mice were given 10 mL of fenretinide-treated Peptamen, which represents ⅔ of the daily mouse food consumption, in the late afternoon. The remaining 5 mL of Peptamen (without fenretinide) was given the following morning. Mice were treated twice a week for 4 weeks. During the treatment period each mouse was kept in a separate cage (including WT mice) and was monitored to ensure that the entire amount of Peptamen containing the fenretinide or with out was consumed. The diet for the mock-treated control group was prepared and administered similarly to that described above, by adding the same volume of ethanol to the Peptamen diet but omitting the fenretinide supplementation.
μ-CT. Mice were sacrificed by CO2 and exsanguinated by cardiac puncture. Femurs, tibiae and vertebrae were extracted, stripped of soft tissue and fixed in 4% paraformaldehyde overnight. Micro Computed Tomography (μCT) was performed on the left femur after overnight fixation. The distal metaphysis was scanned with a Skyscan 1072 μCT instrument (Skyscan, Antwerp, Belgium). Image acquisition was performed at 100 kV and 98 μA, with a 0.9° rotation between frames. The two-dimensional images were used to generate three-dimensional reconstructions to obtain quantitative data using the 3D Creator software supplied with the instrument (ANT 3D Creator software, Skyscan, Antwerp, Belgium).
Histological analysis. Mice were given an intra-peritoneal injection of 30 mg/kg calcein at 7 days and 2 days prior to sacrifice to label actively mineralizing surfaces. After overnight fixation in 4% paraformaldehyde and rinsing in phosphate buffered saline (PBS), right femurs and tibiae were embedded in polymethylmethacrylate (MMA) or a mixture of 50% MMA and 50% glycolmethacrylate (GMA). Serial 4- to 6-μm sections were cut on a modified Leica RM 2155 rotary microtome (Leica Microsystems, Richmond Hill, Ontario, Canada). MMA-embedded tissues were stained with von Kossa and toluidine blue, while 4 μm MMA-GMA sections were stained with tartrate-resistant acidic phosphatase (TRAP) and alkaline phosphate (ALP) activity. Images were captured using a Leica DMR microscope (Leica Microsystems) equipped with a Retiga 1300 camera (Qimaging, Burnaby, British Columbia, Canada). The left femur and tibia and the lumbar vertebrae were decalcified with 4% EDTA for paraffin embedding after 14 days. Serial 5 μm sections were cut and stained with hematoxylin and esosin (H&E). Osteoblasts were defined as a single-nucleated, rod shaped cells and were identified along the surface of the trabecular lamellae. Osteoclasts were defined as multi-nucleated cells that are much larger then osteoblasts and display typical macrophage morphology.

[1] = Weight loss after P. aeruginosa lung infection; format: in vivo, mice; conditions: for Mean weight loss (% of initial weight): mean ± SEM
Protocol: as §2, §1

[2] = system: osteoblasts and osteoclasts; experiment: Osteoblast and osteoclast counts in femur (H&E, TRAP); format: in vivo, mice
Protocol: as §2, with “The remaining 5 mL of Peptamen (without fenretinide) was given the following morning. Mice were treated twice a week for 4 weeks.” left out, “The diet for the mock-treated control group was prepared and administered similarly to that described above, by adding the same volume of ethanol to the Peptamen diet but omitting the fenretinide supplementation.” left out

[3] = cited from earlier work
[4] = Cftr-KO mice, left femur, 8 doses over 4 weeks

CC1=C(/C=C/C(C)=C/C=C/C(C)=C/C(=O)Nc2ccc(O)cc2)C(C)(C)CCC1 [fenretinide, all-trans-N-(4-hydroxyphenyl) retinamide]
Mean total number of alveolar cells in the lungs (alveolar cells; Cftr-KO mice, day 3 post-infection (p=0.530 vs mock-treated)): 1.1×10^6±1.3×10^6
Effect on cells recruited into the lungs of infected mice vs mock-treated (alveolar cells; day 3 post-infection, wild-type and Cftr-KO, neutrophils, monocytes, lymphocytes): no effect
Mean total number of alveolar cells in the lungs (alveolar cells; wild-type mice, day 3 post-infection (p=0.280 vs mock-treated)): 1.2×10^6±1.0×10^6
Signs of osteoporosis in the trabecular bone (μCT) (Cftr-KO mice; Cftr-KO mice, biweekly treatment over four weeks (total 8 doses)): completely eliminate any signs of osteoporosis
Bone number (BN), increase vs Cftr-KO not treated (Cftr-KO mice; [4]): 2.4 fold
Bone volume (BV), increase vs Cftr-KO not treated (Cftr-KO mice; [4]): 3.1 fold
Bone volume/tissue volume (BV/TV), increase vs untreated Cftr-KO (Cftr-KO mice; [4]): 2.7 fold
Structural model index (SMI), treated WT vs treated Cftr-KO (Cftr-KO mice; left femur, fenretinide-treated mice): no significant (p=0.320) difference
Trabecular separation, treated WT vs treated Cftr-KO (Cftr-KO mice; left femur, fenretinide-treated mice, p=0.548): no longer a significant difference
Mean weight loss (% of initial weight) ([1]; Cftr-KO mice, day 1 post-infection): −4.0 ± 1.1 % of initial weight
Mean weight loss (% of initial weight) ([1]; Cftr-KO mice, day 2 post-infection): −12.9 ± 0.9 % of initial weight
Mean weight loss (% of initial weight) ([1]; Cftr-KO mice, day 3 post-infection): −15.3 ± 1.8 % of initial weight
Mean weight loss (% of initial weight) ([1]; Wild-type mice, day 1 post-infection): −4.8 ± 0.4 % of initial weight
Mean weight loss (% of initial weight) ([1]; Wild-type mice, day 2 post-infection): −9.9 ± 0.5 % of initial weight
Mean weight loss (% of initial weight) ([1]; Wild-type mice, day 3 post-infection): −11.1 ± 1.2 % of initial weight
Effect on mean weight loss, fenretinide-treated vs mock-treated ([1]; day 1 to day 3 post-infection): no significant difference
Number of osteoclasts, treated vs untreated ([2]; Cftr-KO and WT mice): No significant difference
Amount of osteoblasts vs untreated Cftr-KO ([2]; Cftr-KO mice, p<0.05): increase
Generalized vascular damage in humans ([3]; clinical trials (Reynolds and Lemons 2001)): does not induce generalized vascular damage
Reversibility of side effects following discontinuation of the treatment ([3]; neuroblastoma subjects 2-21 years (Garaventa 2003)): ≤ 7 days
Subjects in whom side effects occurred ([3]; neuroblastoma subjects 2-21 years, oral once a day in 28-day courses (Garaventa 2003)): 15 of the 45
